Reference: US11155530B2, “Urea-oxaziridines” (The Regents of the University of California, priority 2018, dated 2021)

Assay: Stability of redox conjugation product-sulfimide
Type: physicochemical
Conditions: salt form formed from S3 under strong acidic condition (1 N HCl); co-solvent d-MeOD/D2O=1:1; monitored by NMR after 1 h and 18 h
Experimental: The stability of sulfimides were tested by treatment of sulfimides S2 with 5 mM TCEP or treatment of sulfimides S3 with 1 N HCl, 1 N NaOH or 80° C. in co-solvent (d-MeOD/D2O=1:1). The reactions were monitored by NMR after 1 h and 18 h and the reaction conversions were calculated based on NMR data. Sulfimide S3 can be protonated under strong acidic condition to its salt form S4, which is stable in aqueous solution.

## CCNC(=O)N[S+](C)c1ccccc1.[Cl-] (stereo not shown) [Compound S4]
  stability in aqueous solution: stable
